In patent EP1143981B1, “USE OF N-GLYCOLNEURAMINIC ACID AND ITS DERIVATIVES FOR THE MANUFACTURE OF A MEDICAMENT FOR THE TREATMENT OF HIV INFECTIONS” (Glukor, Inc., priority 1998, dated 2000):

Key:
in vitro = format: cell-based; details: human, cem-ss cells
Experimental: (§1) Cell Preparation: Prior to infection, CEM-SS cells were grown in complete tissue culture medium (RPMI 1640 medium with 10% heat-inactivated fetal bovine serum, 2mM L-glutamine, 100 U/mL penicillin, 100 µg/mL streptomycin, 10 µg/mL gentamycin) and transferred to T-150 flasks. On the day preceding the assay, the cells were split 1:2 to assure the cells would be in an exponential growth phase at time of infection. On the day of assay, the cells were washed twice with tissue culture medium and resuspended in fresh tissue culture medium. Total cell and viability counting were performed using a hemacytometer and trypan blue dye exclusion. Cell viability was greater than 95% for the cells to be utilized in the assay. […]
Tetrazolium dye staining of screening plates: After 6 days of incubation (37°C with 5% CO2), the test plates were analyzed by staining with the tetrazolium dye XTT (2,3-b (2-methoxy-4-nitro-5-sulfophenyl)-2H-tetrazolium -5-carboxanilide). XTT-tetrazolium is metabolized by mitochondrial enzymes of metabolically active cells to a soluble formazan product, allowing the rapid quantitative analysis of the inhibition of HIV-induced cell killing by anti-HIV compounds. […] Plates were sealed with adhesive plate sealers and inverted several times to mix the soluble formazan product and the plate was read spectrophotometrically at 450nm with a Molecular Devices Vmax plate reader. […]

HIV-1 IIIB = experiment: HIV-1 P24 output, test solutions added post infection; format: cell-based; details: Human immunodeficiency virus 1, IIIB; endpoint of the inhibition; read-out: lowest effective concentration for inhibition of HIV p24 output
Experimental: In addition, a similar experiment was performed, except that test solutions were added post infection, at the time of plating into the triplicate wells.

HIV-1RF = experiment: CEM-SS cell-based anti-HIV assay (XTT); details: 3.2µM to 1 mM; CEM-SS cells
Experimental: as §1
Virus Preparation: Pre-tittered aliquots of HIV-1ROJO and HIV-1RF were removed from the freezer (-80°C) and thawed to room temperature in a biological safety cabinet. The virus was resuspended and diluted into tissue culture medium such that the amount of virus added to each well in a volume of 50 µL will be the amount determined to give complete cell killing at 6 days post-infection.
Tetrazolium dye staining of screening plates: After 6 days of incubation (37°C with 5% CO2), the test plates were analyzed by staining with the tetrazolium dye XTT (2,3-b (2-methoxy-4-nitro-5-sulfophenyl)-2H-tetrazolium -5-carboxanilide). […]

HIV-1IIIB = experiment: CEM-SS cell-based anti-HIV assay (XTT); details: 3.2µM to 1 mM; CEM-SS cells

## O=C(CO)N[C@H]1[C@H]([C@H](O)[C@H](O)CO)OC(O)(C(=O)O)C[C@@H]1O (stereo partly shown) [N-glycolylneuraminic acid]
In vitro
  CC50 at 144 h: > 1 mM
HIV-1 IIIB
  minimal effective concentration: 0.003 µg/mL
HIV-1RF
  anti-HIV activity: did not display anti-HIV activity
HIV-1IIIB
  anti-HIV activity: did not display anti-HIV activity
